The supplement of paper PMC11451515

Test system: NOMO1
Experiment: cell viability relative to DMSO control; higher = less cytotoxic
Conditions: 48 h
Outline: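 Library compounds in DMSO were pin-dosed into 1536-well plates (5 μl) holding NOMO1 or SEM (500 cells/well) or P12-Ichikawa (1000 cells/well) leukemia cells, across an 11-point threefold series of 47 μM to 0.79 nM. Each cell line had been adapted for at least four passages in each medium. CellTiter-Glo One luminescence was read after 48 h at 37°C. Viability is the per-plate percentage relative to DMSO wells, with cell-free wells as background.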

[1] = HPLM + 10% dialyzed FBS, 0.000781 µM
[2] = HPLM + 10% dialyzed FBS, 0.00234 µM
[3] = HPLM + 10% dialyzed FBS, 0.00702 µM
[4] = HPLM + 10% dialyzed FBS, 0.0211 µM
[5] = HPLM + 10% dialyzed FBS, 0.0632 µM
[6] = HPLM + 10% dialyzed FBS, 0.19 µM
[7] = HPLM + 10% dialyzed FBS, 0.569 µM
[8] = HPLM + 10% dialyzed FBS, 1.71 µM
[9] = HPLM + 10% dialyzed FBS, 5.12 µM
[10] = HPLM + 10% dialyzed FBS, 15.4 µM
[11] = HPLM + 10% dialyzed FBS, 46.1 µM
[12] = RPMI 5 mM glucose + 10% FBS, 0.000781 µM
[13] = RPMI 5 mM glucose + 10% FBS, 0.00234 µM
[14] = RPMI 5 mM glucose + 10% FBS, 0.00702 µM
[15] = RPMI 5 mM glucose + 10% FBS, 0.0211 µM
[16] = RPMI 5 mM glucose + 10% FBS, 0.0632 µM
[17] = RPMI 5 mM glucose + 10% FBS, 0.19 µM
[18] = RPMI 5 mM glucose + 10% FBS, 0.569 µM
[19] = RPMI 5 mM glucose + 10% FBS, 1.71 µM
[20] = RPMI 5 mM glucose + 10% FBS, 5.12 µM
[21] = RPMI 5 mM glucose + 10% FBS, 15.4 µM
[22] = RPMI 5 mM glucose + 10% FBS, 46.1 µM
[23] = RPMI 5 mM glucose + 10% dialyzed FBS, 0.000781 µM
[24] = RPMI 5 mM glucose + 10% dialyzed FBS, 0.00234 µM
[25] = RPMI 5 mM glucose + 10% dialyzed FBS, 0.00702 µM
[26] = RPMI 5 mM glucose + 10% dialyzed FBS, 0.0211 µM
[27] = RPMI 5 mM glucose + 10% dialyzed FBS, 0.0632 µM
[28] = RPMI 5 mM glucose + 10% dialyzed FBS, 0.19 µM
[29] = RPMI 5 mM glucose + 10% dialyzed FBS, 0.569 µM
[30] = RPMI 5 mM glucose + 10% dialyzed FBS, 1.71 µM
[31] = RPMI 5 mM glucose + 10% dialyzed FBS, 5.12 µM
[32] = RPMI 5 mM glucose + 10% dialyzed FBS, 15.4 µM
[33] = RPMI 5 mM glucose + 10% dialyzed FBS, 46.1 µM

In the case of `C[C@H](NC(=O)C(=O)Nc1ccccc1C(C)(C)C)C(=O)N[C@@H](CC(=O)O)C(=O)COc1c(F)c(F)cc(F)c1F`, the cell viability [1] is reported as 124%, the cell viability [2] is reported as 120% and the cell viability [3] is reported as 133%. It also gave a cell viability [4] of 123%, a cell viability [5] of 142% and a cell viability [6] of 137%. The cell viability [7] was 123%, the cell viability [8] was 141% and the cell viability [9] was 121%. The cell viability [10] was 51.6%, the cell viability [11] was 39% and the cell viability [12] was 115%. For the same molecule, the cell viability [13] was 117%, the cell viability [14] was 121% and the cell viability [15] was 118%. For the same molecule, the cell viability [16] was 122%, the cell viability [17] was 129% and the cell viability [18] was 131%. It also gave a cell viability [19] of 116%, a cell viability [20] of 122% and a cell viability [21] of 89.1%. It also gave a cell viability [22] of 26.5%.
In the case of `Nc1nc(-c2nn(Cc3ccccc3F)c3ncccc23)nc(N)c1N1CCOCC1`, the cell viability [1] is reported as 75.2%, the cell viability [2] is reported as 103% and the cell viability [3] is reported as 115%. For the same molecule, the cell viability [4] was 102%, the cell viability [5] was 119% and the cell viability [6] was 122%. The cell viability [7] was 122%, the cell viability [8] was 122% and the cell viability [9] was 130%. For the same molecule, the cell viability [10] was 112%, the cell viability [11] was 92.1% and the cell viability [12] was 88.5%. It also gave a cell viability [13] of 93.8%, a cell viability [14] of 106% and a cell viability [15] of 107%. For the same molecule, the cell viability [16] was 110%, the cell viability [17] was 115% and the cell viability [18] was 113%. It also gave a cell viability [19] of 120%, a cell viability [20] of 104% and a cell viability [21] of 112%. It also gave a cell viability [22] of 113%, a cell viability [23] of 96.3% and a cell viability [24] of 107%. It also gave a cell viability [25] of 107%, a cell viability [26] of 110% and a cell viability [27] of 123%. It also gave a cell viability [28] of 106%, a cell viability [29] of 111% and a cell viability [30] of 116%. It also gave a cell viability [31] of 108%, a cell viability [32] of 121% and a cell viability [33] of 110%.
With `CC[C@H]1OC(=O)[C@H](C)[C@@H](O[C@H]2C[C@@](C)(OC)[C@@H](O)[C@H](C)O2)[C@H](C)[C@@H](O[C@@H]2O[C@@H](C)C[C@H](N(C)C)[C@H]2O)[C@](C)(O)C[C@@H](C)C(=O)[C@H](C)[C@@H](O)[C@]1(C)O` the cell viability [1] was 86.3%, the cell viability [2] was 80.4% and the cell viability [3] was 97.4%. For the same molecule, the cell viability [4] was 93%, the cell viability [5] was 105% and the cell viability [6] was 105%. The cell viability [7] was 108%, the cell viability [8] was 87% and the cell viability [9] was 80.9%. The cell viability [10] was 63.4%, the cell viability [11] was 56.7% and the cell viability [12] was 77.5%. It also gave a cell viability [13] of 81%, a cell viability [14] of 79.8% and a cell viability [15] of 94.9%. For the same molecule, the cell viability [16] was 91.8%, the cell viability [17] was 92.1% and the cell viability [18] was 88.8%. The cell viability [19] was 84.9%, the cell viability [20] was 81% and the cell viability [21] was 88.8%. The cell viability [22] was 55%, the cell viability [23] was 77.8% and the cell viability [24] was 90.3%. For the same molecule, the cell viability [25] was 91%, the cell viability [26] was 91.6% and the cell viability [27] was 102%. For the same molecule, the cell viability [28] was 86.8%, the cell viability [29] was 93.3% and the cell viability [30] was 101%. For the same molecule, the cell viability [31] was 90.3%, the cell viability [32] was 95.3% and the cell viability [33] was 51.8%.
For `CCC1=C[C@@H]2CN(C1)Cc1c([nH]c3ccccc13)[C@@](C(=O)OC)(c1cc3c(cc1OC)N(C)[C@H]1[C@@](O)(C(=O)OC)[C@H](OC(C)=O)[C@]4(CC)C=CCN5CC[C@]31[C@@H]54)C2`, the cell viability [1] was 127%, the cell viability [2] was 119% and the cell viability [3] was 108%. For the same molecule, the cell viability [4] was 96.9%, the cell viability [5] was 49.3% and the cell viability [6] was 34.5%. It also gave a cell viability [7] of 38%, a cell viability [8] of 34.5% and a cell viability [9] of 38.4%. It also gave a cell viability [10] of 47%, a cell viability [11] of 27.4% and a cell viability [12] of 106%. For the same molecule, the cell viability [13] was 98.3%, the cell viability [14] was 98.9% and the cell viability [15] was 99.3%. For the same molecule, the cell viability [16] was 70.5%, the cell viability [17] was 20.6% and the cell viability [18] was 21.1%. The cell viability [19] was 23.4%, the cell viability [20] was 22.4% and the cell viability [21] was 29.2%. The cell viability [22] was 18.9%, the cell viability [23] was 120% and the cell viability [24] was 114%. For the same molecule, the cell viability [25] was 114%, the cell viability [26] was 107% and the cell viability [27] was 86.5%. It also gave a cell viability [28] of 18.8%, a cell viability [29] of 25.7% and a cell viability [30] of 26.5%. It also gave a cell viability [31] of 29%, a cell viability [32] of 27.8% and a cell viability [33] of 20.5%.
`O=C1Nc2ccccc2/C1=C1\Nc2ccccc2C1=O` gave a cell viability [1] of 105%, a cell viability [2] of 116% and a cell viability [3] of 112%. The cell viability [4] was 112%, the cell viability [5] was 99.1% and the cell viability [6] was 97.7%. The cell viability [7] was 110%, the cell viability [8] was 96.4% and the cell viability [9] was 112%. The cell viability [10] was 102%, the cell viability [11] was 90.5% and the cell viability [12] was 93%. For the same molecule, the cell viability [13] was 87.4%, the cell viability [14] was 97.6% and the cell viability [15] was 103%. For the same molecule, the cell viability [16] was 103%, the cell viability [17] was 94.7% and the cell viability [18] was 93.7%. It also gave a cell viability [19] of 88.7%, a cell viability [20] of 96.2% and a cell viability [21] of 85.6%. It also gave a cell viability [22] of 86.9%, a cell viability [23] of 98.2% and a cell viability [24] of 95.9%. It also gave a cell viability [25] of 109%, a cell viability [26] of 100% and a cell viability [27] of 88.1%. The cell viability [28] was 93.9%, the cell viability [29] was 89.4% and the cell viability [30] was 94.3%. The cell viability [31] was 89.4%, the cell viability [32] was 89.1% and the cell viability [33] was 84.9%.
`CC/1=C/N([C@@H]2C[C@@H](O)[C@H](CO)O2)C(=O)NC1=O` was tested, and the cell viability [1] was 97.5%, the cell viability [2] was 109% and the cell viability [3] was 89%. The cell viability [4] was 104%, the cell viability [5] was 102% and the cell viability [6] was 101%. The cell viability [7] was 100%, the cell viability [8] was 95.1% and the cell viability [9] was 80.3%. The cell viability [10] was 92.8%, the cell viability [11] was 61.2% and the cell viability [12] was 84.9%. It also gave a cell viability [13] of 85.2%, a cell viability [14] of 82% and a cell viability [15] of 83.4%. For the same molecule, the cell viability [16] was 88.7%, the cell viability [17] was 99.3% and the cell viability [18] was 79.7%. It also gave a cell viability [19] of 88.1%, a cell viability [20] of 90.1% and a cell viability [21] of 83.7%. It also gave a cell viability [22] of 66.4%, a cell viability [23] of 80% and a cell viability [24] of 94%. The cell viability [25] was 84.6%, the cell viability [26] was 86.4% and the cell viability [27] was 98.4%. For the same molecule, the cell viability [28] was 87.7%, the cell viability [29] was 92.1% and the cell viability [30] was 85%. It also gave a cell viability [31] of 75.9%, a cell viability [32] of 94.4% and a cell viability [33] of 62.3%.
With `COCCOC(=O)C/1=C(C)/NC/2=C(C1C3=CC=CC(=C3)O)/C(=O)CC(C2)C4=C(OC)C=CC=C4` (stereo not given) the cell viability [1] was 96.9%, the cell viability [2] was 105% and the cell viability [3] was 93.2%. It also gave a cell viability [4] of 118%, a cell viability [5] of 116% and a cell viability [6] of 104%. It also gave a cell viability [7] of 124%, a cell viability [8] of 97.9% and a cell viability [9] of 102%. The cell viability [10] was 87.5%, the cell viability [11] was 59.3% and the cell viability [12] was 82.5%. The cell viability [13] was 89.6%, the cell viability [14] was 110% and the cell viability [15] was 118%. The cell viability [16] was 119%, the cell viability [17] was 99.7% and the cell viability [18] was 99.7%. It also gave a cell viability [19] of 99.5%, a cell viability [20] of 97.3% and a cell viability [21] of 96.9%. For the same molecule, the cell viability [22] was 78.5%, the cell viability [23] was 89.4% and the cell viability [24] was 105%. It also gave a cell viability [25] of 99.7%, a cell viability [26] of 99.6% and a cell viability [27] of 114%. It also gave a cell viability [28] of 109%, a cell viability [29] of 112% and a cell viability [30] of 99.2%. For the same molecule, the cell viability [31] was 109%, the cell viability [32] was 91.4% and the cell viability [33] was 85.2%.
